Results on eight molecules are retold here after ChEMBL document CHEMBL5465560, “Selectivity Literature for EUbOPEN Chemogenomic Library” (2024).

Test [1] addresses T1, Mitogen-activated protein kinase kinase kinase kinase 3 (Homo sapiens) (UniProt Q8IVH8).
T1 sequence (whole entry): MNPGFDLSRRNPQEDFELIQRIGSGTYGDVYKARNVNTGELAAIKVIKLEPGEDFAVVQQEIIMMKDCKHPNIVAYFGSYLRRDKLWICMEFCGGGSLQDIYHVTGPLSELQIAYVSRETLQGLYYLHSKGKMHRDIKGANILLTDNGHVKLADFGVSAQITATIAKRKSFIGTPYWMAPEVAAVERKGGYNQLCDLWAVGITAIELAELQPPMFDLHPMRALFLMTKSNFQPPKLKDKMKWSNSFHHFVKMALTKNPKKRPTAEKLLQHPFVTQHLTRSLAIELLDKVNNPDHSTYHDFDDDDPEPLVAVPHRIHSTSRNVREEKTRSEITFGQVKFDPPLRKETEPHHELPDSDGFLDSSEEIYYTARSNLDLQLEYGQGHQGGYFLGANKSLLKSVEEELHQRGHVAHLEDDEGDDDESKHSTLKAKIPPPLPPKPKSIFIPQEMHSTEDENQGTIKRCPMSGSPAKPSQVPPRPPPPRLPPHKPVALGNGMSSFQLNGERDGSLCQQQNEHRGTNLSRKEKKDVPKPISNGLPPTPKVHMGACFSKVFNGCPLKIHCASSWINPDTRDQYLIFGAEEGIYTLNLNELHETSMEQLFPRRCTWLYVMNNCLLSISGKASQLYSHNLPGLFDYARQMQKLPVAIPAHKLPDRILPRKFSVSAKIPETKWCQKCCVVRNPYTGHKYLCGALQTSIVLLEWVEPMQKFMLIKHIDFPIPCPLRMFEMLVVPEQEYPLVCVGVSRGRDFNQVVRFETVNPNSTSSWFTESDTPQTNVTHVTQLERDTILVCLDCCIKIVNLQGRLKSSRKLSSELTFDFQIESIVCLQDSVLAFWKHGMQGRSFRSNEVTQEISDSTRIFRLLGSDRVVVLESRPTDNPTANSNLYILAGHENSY
The conditions noted are these: at 10 µM.

The target of test [2] is Tyrosine-protein kinase HCK (Homo sapiens) (UniProt P08631). Description: Selectivity interaction (ActivX KiNativ screen (kinase selectivity in THP-1 cell lysates)) EUB0000639a HCK. In kind it is subcellular. The conditions noted are these: lysate, at 0.01 µM.
The target in test [3] is Calcium/calmodulin-dependent protein kinase type 1 (Homo sapiens) (UniProt Q14012). Briefly: Selectivity interaction (ActivX KiNativ screen (kinase selectivity in THP-1 cell lysates)) EUB0000639a CAMK1. The conditions noted are these: lysate, at 0.2 µM. In kind it is subcellular.
Test [4] deals with Proto-oncogene tyrosine-protein kinase receptor Ret (Homo sapiens), P07949 [V804L]. Description: (§1) Selectivity interaction (ProQinase) EUB0000171b RET.
Test [5] concerns Proto-oncogene tyrosine-protein kinase receptor Ret (Homo sapiens), P07949 [E762Q]. Described as §1.
Test [6] concerns Proto-oncogene tyrosine-protein kinase receptor Ret (Homo sapiens), P07949 [R813Q]. The test is described as §1.
Test [7] has as its system Proto-oncogene tyrosine-protein kinase receptor Ret (Homo sapiens), P07949 [G691S]. The description is as §1.
In test [8] the test system is Proto-oncogene tyrosine-protein kinase receptor Ret (Homo sapiens), P07949 [V804M]. The test is described as §1.
Test [9] has as its system Proto-oncogene tyrosine-protein kinase receptor Ret (Homo sapiens), P07949 [Y791F]. Described as §1.
Test [10] relates to Proto-oncogene tyrosine-protein kinase receptor Ret (Homo sapiens), P07949 [R749T]. The description is as §1.
The target of test [11] is Proto-oncogene tyrosine-protein kinase receptor Ret (Homo sapiens, UniProt P07949). The test is described as §1.
Test [12] has as its system Proto-oncogene tyrosine-protein kinase receptor Ret (Homo sapiens), P07949 [S891A]. The description is as §1.
Test [13] concerns Proto-oncogene tyrosine-protein kinase receptor Ret (Homo sapiens), P07949 [M918T]. Described as §1.
Test [14] concerns the target Receptor-type tyrosine-protein kinase FLT3 (Homo sapiens) (UniProt P36888). Description: Selectivity interaction (Upstate Kinase Profiler service (Millipore)) EUB0000056c FLT3. The conditions noted are these: at 1 µM.
Test [15] deals with Ribosomal protein S6 kinase alpha-3 (Homo sapiens, UniProt P51812). Description: Selectivity interaction (Upstate Kinase Profiler service (Millipore)) EUB0000056c RPS6KA3. The conditions noted are these: at 1 µM.
The target of another test is Thromboxane A2 receptor (Homo sapiens, UniProt P21731). Description: Selectivity interaction (Thromboxane A2 receptor binding assay, human recombinant) EUB0000877a TBXA2R.
The target of test [16] is T2, N-lysine methyltransferase KMT5A (Homo sapiens) (UniProt Q9NQR1).
T2 sequence (whole entry): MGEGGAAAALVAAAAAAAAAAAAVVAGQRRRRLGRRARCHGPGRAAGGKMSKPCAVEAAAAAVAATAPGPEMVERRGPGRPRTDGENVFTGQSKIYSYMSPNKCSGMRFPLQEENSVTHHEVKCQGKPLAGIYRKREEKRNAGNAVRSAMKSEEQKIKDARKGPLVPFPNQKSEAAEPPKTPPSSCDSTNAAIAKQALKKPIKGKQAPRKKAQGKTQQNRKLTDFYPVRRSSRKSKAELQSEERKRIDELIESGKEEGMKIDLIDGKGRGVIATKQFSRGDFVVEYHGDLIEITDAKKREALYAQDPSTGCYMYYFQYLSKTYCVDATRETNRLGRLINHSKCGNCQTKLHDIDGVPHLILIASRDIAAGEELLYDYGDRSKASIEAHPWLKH
Description: Selectivity interaction (Transferase panel (protein, RNA, and DNA methyltransferases. and EP300 (acetyltransferase))) EUB0000270b SETD8.

The target of test [17] is Bone morphogenetic protein receptor type-1A (Homo sapiens, UniProt P36894). Description: Selectivity interaction (KinomeScan (DiscoverX)) EUB0001079a BMPR1A. The conditions noted are these: at 1 µM.
The target of test [18] is Homeodomain-interacting protein kinase 3 (Homo sapiens, UniProt Q9H422). Briefly: Selectivity interaction (KinomeScan (DiscoverX)) EUB0000229b HIPK3. The conditions noted are these: at 10 µM.
Test [19] is described as follows: Selectivity interaction (KinomeScan (DiscoverX)) EUB0000229b CDPK1. The conditions noted are these: at 1 µM.

Proto-oncogene tyrosine-protein kinase receptor Ret (Homo sapiens), P07949 [V804M], sequence (P07949 whole entry V804M): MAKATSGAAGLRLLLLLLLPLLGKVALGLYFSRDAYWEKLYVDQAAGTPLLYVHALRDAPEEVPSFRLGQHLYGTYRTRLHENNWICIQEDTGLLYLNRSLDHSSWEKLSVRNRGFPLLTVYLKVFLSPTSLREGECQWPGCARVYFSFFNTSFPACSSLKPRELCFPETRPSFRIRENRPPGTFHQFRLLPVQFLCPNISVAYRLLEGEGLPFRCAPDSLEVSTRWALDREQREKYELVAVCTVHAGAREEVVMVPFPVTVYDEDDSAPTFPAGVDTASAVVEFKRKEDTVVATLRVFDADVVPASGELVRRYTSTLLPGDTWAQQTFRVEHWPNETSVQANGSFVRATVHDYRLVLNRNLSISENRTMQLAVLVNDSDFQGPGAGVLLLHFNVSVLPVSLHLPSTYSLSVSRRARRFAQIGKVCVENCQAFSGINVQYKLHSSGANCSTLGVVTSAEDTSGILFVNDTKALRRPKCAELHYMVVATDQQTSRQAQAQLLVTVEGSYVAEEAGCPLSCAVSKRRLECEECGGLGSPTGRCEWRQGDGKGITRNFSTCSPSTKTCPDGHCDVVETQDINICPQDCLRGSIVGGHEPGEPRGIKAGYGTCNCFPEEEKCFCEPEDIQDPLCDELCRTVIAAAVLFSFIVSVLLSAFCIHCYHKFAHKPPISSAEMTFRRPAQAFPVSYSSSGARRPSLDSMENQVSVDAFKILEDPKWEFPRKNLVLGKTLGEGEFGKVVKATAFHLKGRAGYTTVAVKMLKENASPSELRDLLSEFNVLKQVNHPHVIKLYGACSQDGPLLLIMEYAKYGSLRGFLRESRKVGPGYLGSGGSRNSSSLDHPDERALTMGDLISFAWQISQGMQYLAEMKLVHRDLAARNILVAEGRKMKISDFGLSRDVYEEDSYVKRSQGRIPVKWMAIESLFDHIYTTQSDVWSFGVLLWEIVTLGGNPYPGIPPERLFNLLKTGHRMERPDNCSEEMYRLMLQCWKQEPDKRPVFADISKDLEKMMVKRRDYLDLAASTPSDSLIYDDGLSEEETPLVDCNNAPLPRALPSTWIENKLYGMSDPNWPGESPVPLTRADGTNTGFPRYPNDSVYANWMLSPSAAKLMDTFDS
Proto-oncogene tyrosine-protein kinase receptor Ret (Homo sapiens), P07949 [Y791F], sequence (P07949 whole entry Y791F): as the sequence (P07949 whole entry V804M) above, with Y791F, M804V counted along it
Proto-oncogene tyrosine-protein kinase receptor Ret (Homo sapiens), P07949 [V804L], sequence (P07949 whole entry V804L): as the sequence (P07949 whole entry V804M) above, with M804L counted along it
Proto-oncogene tyrosine-protein kinase receptor Ret (Homo sapiens), P07949 [S891A], sequence (P07949 whole entry S891A): as the sequence (P07949 whole entry V804M) above, with M804V, S891A counted along it
Bone morphogenetic protein receptor type-1A, sequence (P36894 whole entry): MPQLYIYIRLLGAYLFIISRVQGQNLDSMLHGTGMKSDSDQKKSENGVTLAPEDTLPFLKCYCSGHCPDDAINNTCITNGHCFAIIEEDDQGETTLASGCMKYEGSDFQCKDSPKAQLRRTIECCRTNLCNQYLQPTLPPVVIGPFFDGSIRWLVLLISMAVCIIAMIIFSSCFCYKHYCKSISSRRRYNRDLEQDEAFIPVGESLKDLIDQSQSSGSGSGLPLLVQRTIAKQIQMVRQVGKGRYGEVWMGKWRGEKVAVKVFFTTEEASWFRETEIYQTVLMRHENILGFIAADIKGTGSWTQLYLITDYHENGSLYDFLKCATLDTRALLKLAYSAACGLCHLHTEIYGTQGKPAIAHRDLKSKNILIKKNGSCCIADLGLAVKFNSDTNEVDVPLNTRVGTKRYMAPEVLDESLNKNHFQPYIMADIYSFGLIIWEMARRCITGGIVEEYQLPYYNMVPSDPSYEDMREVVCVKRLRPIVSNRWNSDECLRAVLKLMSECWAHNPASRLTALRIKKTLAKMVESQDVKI

In turn, `Cc1cc([C@@H](C)Nc2ccccc2C(=O)O)c2nc(N3CCOCC3)cc(=O)n2c1` [AZD-6482] came in with a % of control in test [1] of 88%.
For the molecule `CC[C@@H]1[C@H](F)C(=O)N[C@@H]1COc1nccc2cc(C(N)=O)c(OC)cc12` [ZIMLOVISERTIB], the results for the % of inhibition in test [2] and in [3] were -14.7% and -2.3%, respectively.
Take `C=CC(=O)Nc1cccc(C(=O)Nc2ccc(Nc3cc(-c4[nH]c(SC)nc4C)ccn3)cc2)c1`: the % of control in test [4] (at 1 µM) was determined as 88%; in test [4] (at 5 µM), 80%; in test [5] (at 1 µM) it was 95%; in test [5] (at 5 µM), 78%; in test [6] (at 1 µM) it was 98%; in [6] (at 5 µM) it was 75%. Moreover, the % of control was determined as 90% in [7] (at 1 µM); 77% in test [7] (at 5 µM); 98% in test [8] (at 1 µM); 90% in test [8] (at 5 µM); 96% in test [9] (at 1 µM); 71% in [9] (at 5 µM). In addition, the % of control in [10] (at 1 µM) amounted to 96%; in [10] (at 5 µM), 76%; in test [11] (at 1 µM), 87%; in [11] (at 5 µM), 72%; in [12] (at 1 µM), 95%; in test [12] (at 5 µM), 74%. Besides, the % of control was 97% in test [13] (at 1 µM) and 82% in [13] (at 5 µM).
Turning to `Cc1ccc(-c2ccc3c(ccc4sc5c(c43)NC[C@@H](C)NC5=O)n2)cn1`, the results for the % of inhibition in test [14] and in [15] were -11% and 27%, respectively.
Usually IC50 stands for the point on the concentration scale where inhibition reaches its midpoint. As for `CCC(=O)N1CC[C@H](Nc2ncnc3c2CN(c2cnc(OC)c(C(F)(F)F)c2)CC3)C1` [LENIOLISIB], the IC50 at Thromboxane A2 receptor was above 30 µM.
With `Cc1cc(CN)cc(C)c1-c1ncn(C)c1-c1cncn1C`, the % activity in test [16] (at 1 µM) is above 90%; in test [16] (at 10 µM) it was above 80%.
In test [17], `Nc1cnc(N2CCc3cc(S(=O)(=O)Nc4c(F)cc(Cl)cc4F)cc(N4CCCC4=O)c32)nc1` [TP-020n] had a % of control of 91%.
For `COc1cc(N(C)c2ccnc3ccc(C(F)(F)F)cc23)cc(OC)c1OC`, the results for the % binding in test [18] and in [19] were 81% and 74%, respectively.
